One assay deals with T1, BRD2 (Mus musculus, UniProt Q7JJ13).
T1 construct: Primary cortical neurons express BRD2/3/4, with BRD2 and BRD4 being the most abundant; endogenous in cells; host or cells: primary cortical neuronal cultures (mouse)
The assay can be described thus: ChIP sequencing of BRD2 chromatin occupancy in neurons. The assay is classed as cell-based. The procedure: Chromatin Immunoprecipitation with Sequencing. Primary cortical neuronal cultures were washed once with PBS then fixed for 10 minutes with a 1% formaldehyde solution in PBS with protease inhibitors (Sigma #P8340) at room temperature. Fixation was quenched adding glycine to a final concentration of 0.125M (5 minutes, room temperature). 10e6 fixed cells were resuspended in 1 ml of lysis buffer (50 mM Hepes KOH, pH7.5, 140 mM NaCl, 1 mM EDTA, 10% glycerol, 0.5% NP-40, 0.25% Triton X-100) and 10 ul of protease inhibitor cocktail (PIC). Samples were rotated for 10 minutes at 4 degrees then spun at 1350 g at 4 C for 10 minutes. Pellets were resuspended in 1 ml of lysis buffer 2 (10 mM Tris-HCl pH8.0, 200 mM NaCl, 1 mM EDTA, 0.5 mM EGTA) and 10 ul PIC.). 5e6 nuclei were sonicated in lysis buffer 3 (10 mM Tris-HCl pH8.0, 100 mM NaCl, 1 mM EDTA, 0.5 mM EGTA, 0.1% Na-Deoxicholate, 0.5% N-Lauroylsarcosine) at 4 degrees for 5 cycles of 30 seconds ON/30 seconds OFF using the Diagenode bioruptor. After, 30 ul of 10% Triton-X100 was added to each sample and then spun for 15 minutes at 20,000 g at 4 degrees. Sonication efficiency was checked by running the samples on a 2% agarose gel to confirm enrichment for fragments from 200-500 bps.
Streptavidin M-280 dynabeads were blocked with 0.5% BSA solution and coupled to 7 ug of antibody (Brd4 #Ab84778, Brd2 Bethyl #A302-583A, Pol2 Ser5 #Ab5408) for at least 8 hours at 4 degrees, rotating. Antibody-coupled beads were then added to sonicated chromatin (20e6 cells for Brd2/Brd4, 10e6 for Pol2) and incubated overnight at 4 degrees. After washing the IPs eight times with wash buffer (50 mM Hepes-KOH pH7.6, 100 mM LiCl, 1 mM EDTA, 1% NP-40, 0.7% Na-Deoxycholate) and once with TE buffer (10 mM Tris-HCl, 1 mM EDTA, 50 mM NaCl), Chromatin was eluted from magnetic beads in 200 ul elution buffer ([…] Tris-HCl pH8.0, 10 mM EDTA, 1% SDS) for 45 minutes at 65 degrees. Samples were de-crosslinked overnight at 65 degrees and proteins and RNA were removed by incubating with RNAse and proteinase k. Samples were purified using the Qiagen PCR purification kit according to the manufacturers protocol.
Samples were end-repaired using the End-IT DNA End-Repair Kit (#ER0720). After 45 minutes incubation, samples were purified using the Qiagen PCR Clean up kit as described above. Samples were adenylated using a reaction mix (200 uM dATP, 1× Klenow buffer NEB2, Klenow Fragment (3′ to 5′ exo-), NEB M0212L) and incubating at 37 degrees for 30 minutes. […] Raw sequencing reads were then aligned to the mouse mm9 genome using the default settings of Bowtie (v2.2.0)87. Only uniquely mapped reads were retained, and the alignments were subsequently filtered using the SAMtools package (v0.1.19)88 to remove duplicate reads. […]

In another assay the test system is primary cortical neurons. The assay can be described thus: Aβ1-43 oligomer induced neuronal death. The assay is classed as cell-based, mouse. The note with it: Aβ1-43 oligomers, 1 week pretreatment. The text has this: While glutamate toxicity is a widely used and clinically relevant assay, there are other factors that contribute to neuronal death in vivo such as lack of oxygen which occurs after stroke or protein aggregates which are observed in many neurodegenerative disorders. To understand if the observed protective effect is specific to glutamate toxicity, neurons were exposed to either hypoxic (1% O2) environments or Aβ1-43 oligomers (FIGS. 10E and 10F).
IBET treatment protects neurons from neurotoxin-induced cell death (FIGS. 22C-22E). Dot plots show the percentage of cells that are propidium iodide negative after different neurotoxic insults when pre-treated with either control or iBET for 1 week. 6 hours and 24 hours after 1 mM glutamate exposure are shown in FIG. 22C; 18 hours, 24 hours, and 48 hours of hypoxia (1% O2) are shown in FIG. 22D; and 48 hours and 72 hours of Aβ1-43 oligomer exposure (10 μM) are shown in FIG. 22E. Two-way repeated measures ANOVA with multiple comparisons, n=3 per group, ***p<0.001. Experiments were repeated a minimum of three times.

The next assay deals with wild-type mice. The assay can be described thus: Classic fear conditioning in wild-type mice. The assay is classed as in vivo, mouse. The note with it: five weeks of daily IBET858 injections. How it is done:
[…] Albans, VT) as described previously (Schaefer et al., “Control of Cognition and Adaptive Behavior by the GLP/G9a Epigenetic Suppressor Complex,” Neuron 64:678-691 (2009), which is hereby incorporated by reference in its entirety). Briefly, a mouse was placed in the test chamber (house lights on) and allowed to explore freely for 2 min. A white noise (80 dB) was then presented for 30 s, co-terminating with a mild foot shock (2 s, 0.5 mA). Two minutes later the same sequence of auditory cue-shock pairing was repeated. The mouse was removed from the chamber 30 s later and returned to its home cage. Freezing behavior was continuously recorded during the time spent in the test chamber. […] Twenty-four hours later, the mouse was placed back into the test chamber for 5 min and freezing behavior was recorded (context test). Two hours later, the mouse was tested for freezing in response to the auditory cue. Environmental and contextual cues were changed for the auditory cue test. The auditory cue test was divided into two phases: 3 min in the absence of the auditory cue and 3 min of the auditory cue. The time freezing during each test was converted to a percentage of freezing value.
To understand if these cellular and molecular improvements impact behavior, memory was assessed using the classic fear conditioning paradigm.

T1 sequence (Q7JJ13 whole entry): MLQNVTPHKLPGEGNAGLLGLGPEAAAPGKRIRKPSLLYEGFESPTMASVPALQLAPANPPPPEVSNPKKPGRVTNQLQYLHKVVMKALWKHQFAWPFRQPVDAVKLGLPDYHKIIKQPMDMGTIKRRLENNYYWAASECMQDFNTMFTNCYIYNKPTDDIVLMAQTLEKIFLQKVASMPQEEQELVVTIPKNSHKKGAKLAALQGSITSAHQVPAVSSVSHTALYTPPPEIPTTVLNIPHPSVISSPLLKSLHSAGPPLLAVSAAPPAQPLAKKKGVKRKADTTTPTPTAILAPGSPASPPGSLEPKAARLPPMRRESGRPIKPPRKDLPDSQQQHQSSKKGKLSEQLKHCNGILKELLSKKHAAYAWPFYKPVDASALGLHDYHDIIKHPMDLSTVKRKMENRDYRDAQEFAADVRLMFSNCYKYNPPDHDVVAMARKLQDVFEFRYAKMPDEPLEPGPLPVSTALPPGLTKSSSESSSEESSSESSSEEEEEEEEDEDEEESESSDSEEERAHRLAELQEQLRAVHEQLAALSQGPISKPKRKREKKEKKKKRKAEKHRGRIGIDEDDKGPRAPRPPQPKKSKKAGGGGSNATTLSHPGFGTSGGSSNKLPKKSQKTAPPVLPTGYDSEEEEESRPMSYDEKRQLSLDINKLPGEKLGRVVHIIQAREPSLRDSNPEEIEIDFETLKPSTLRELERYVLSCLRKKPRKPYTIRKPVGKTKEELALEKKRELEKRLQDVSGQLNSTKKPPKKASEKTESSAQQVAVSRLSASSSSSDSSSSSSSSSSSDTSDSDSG

On to `CC(=O)N1c2ccc(-c3ccc(CN4CCCCC4)cc3)cc2[C@H](Nc2ccccc2)CC1C` (stereo in doubt) [IBET858], for which, at BRD2 (6 h IBET858), the “genes that lose BRD2 at the transcriptional start site” value is on record as 1497 genes and the “genes with gain of BRD2 at the transcriptional start site” value came out at 828 genes. On BRD2 (DIV7, 6 h IBET858), the “loci with reduced occupancy of BRD2” value came to 2099 loci. For the same molecule, at BRD2 (day 7, 6 h IBET858), the “loci with increased occupancy of BRD2” value stood at 1680 loci. Also, the “loss of neurons due to toxic Aβ oligomers” value with primary cortical neurons is “significantly prevents loss of neurons”. Also, the contextual recall in the assay on wild-type mice is “significantly increased”.

Source of the values: patent publication US12691124B2, “Methods of controlling and improving brain health” (ICAHN SCHOOL OF MEDICINE AT MOUNT SINAI, priority 2019, dated 2026).
